Reference: patent US5391744A (priority 1993, dated 1995)
Entries after “also recorded” stand apart in the source; their conditions may differ. Like-named read-outs stand apart in the source and are kept apart here.

Key:
nonhuman primates = settings: in words; literature; cited from earlier work
dopamine transporter [1] = settings: in words; literature; cited from earlier work
[2] = target: T1, dopamine transporter (high-affinity uptake of [^3 H]dopamine into striatal nerve endings) (Rattus norvegicus, UniProt P23977); experiment: inhibition of high-affinity uptake of [^3 H]dopamine into striatal nerve endings (synaptosomes); assay type: biochemical
T1 construct: striatal nerve endings (synaptosomes); from tissue; host or cells: striatal nerve endings (synaptosomes)
T1 sequence (P23977 whole entry): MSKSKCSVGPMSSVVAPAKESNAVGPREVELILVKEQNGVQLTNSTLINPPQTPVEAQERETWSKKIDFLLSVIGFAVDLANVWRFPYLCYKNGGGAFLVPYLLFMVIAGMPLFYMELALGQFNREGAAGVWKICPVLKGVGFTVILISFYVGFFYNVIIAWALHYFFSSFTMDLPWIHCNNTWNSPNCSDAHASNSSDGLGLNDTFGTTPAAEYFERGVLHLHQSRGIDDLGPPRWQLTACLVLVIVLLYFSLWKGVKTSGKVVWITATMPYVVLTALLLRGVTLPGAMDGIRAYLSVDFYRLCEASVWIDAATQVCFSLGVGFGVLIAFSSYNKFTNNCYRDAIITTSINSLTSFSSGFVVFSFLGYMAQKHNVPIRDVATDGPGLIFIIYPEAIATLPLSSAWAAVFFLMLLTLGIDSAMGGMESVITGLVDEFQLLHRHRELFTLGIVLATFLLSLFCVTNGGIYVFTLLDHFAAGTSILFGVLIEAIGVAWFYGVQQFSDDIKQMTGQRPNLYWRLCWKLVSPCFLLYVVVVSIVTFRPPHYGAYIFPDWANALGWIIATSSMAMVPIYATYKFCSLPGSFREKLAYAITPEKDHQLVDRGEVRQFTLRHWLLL

dopamine transporter [3] = target: T2, dopamine transporter (Rattus norvegicus, UniProt P23977); experiment: displacement of [^3 H]mazindol binding from rat striatal membranes; settings: for potency / affinity increase over cocaine, mazindol binding: relative to (-)-cocaine
T2 sequence (P23977 whole entry): as above

dopamine transporter [4] = target: T2, dopamine transporter; parameters: from tissue; host or cells: rat striatal membranes; settings: 0.5 nM [^3 H]-1b; rat striata; F. I. Carroll et al.; cited from earlier work
[5] = test system: rats trained to discriminate cocaine
[6] = test system: rats trained to discriminate cocaine; experiment: animal or person; settings: Rattus norvegicus, ip, 0.25 h, read-out: ED50 (50% cocaine-lever responding)
[7] = mean ± SE (N), striatal synaptosomes, read-out: IC50 [^3 H] Dopamine Uptake
[8] = dose-response test, 0.625 mg/kg, 15 min, mean ± S.E.M.
[9] = dose-response test, 1.25 mg/kg, 15 min, mean ± S.E.M.
[10] = dose-response test, 2.5 mg/kg, 15 min, mean ± S.E.M.
[11] = dose-response test, 5.0 mg/kg, 15 min, mean ± S.E.M.
[12] = dose-response test, 10.0 mg/kg, 15 min, mean ± S.E.M.
[13] = temporal test, 10.0 mg/kg, 5 min, mean ± S.E.M.
[14] = temporal test, 10.0 mg/kg, 15 min, mean ± S.E.M.
[15] = temporal test, 10.0 mg/kg, 60 min, mean ± S.E.M.
[16] = temporal test, 10.0 mg/kg, 120 min, mean ± S.E.M.

## COC(=O)C(c1ccccc1)C1CCCCN1 (stereo not drawn) [methylphendiate]
Nonhuman primates
  potency in maintaining self-administration: potent in maintaining self-administration
Dopamine transporter [1]
  binding to / inhibition of the dopamine transporter: potent inhibitors of binding at the transport site for dopamine

## OC1(c2ccc(Cl)cc2)c2ccccc2C2=NCCN21 (stereo not drawn) [mazindol]
Nonhuman primates
  potency in maintaining self-administration: potent in maintaining self-administration
Dopamine transporter [1]
  binding to / inhibition of the dopamine transporter: potent inhibitors of binding at the transport site for dopamine

## CN1[C@H]2CC[C@@H]1[C@@H](/C=C/Cl)[C@@H](OC(=O)c1ccccc1)C2 [Compound 2b, 3β-(Benzoyloxy)-2β-[(E)-2-chlorovinyl]tropane]
[2]; [7]
  IC50: 368 ± 190 nM
Dopamine transporter [3]
  potency / affinity increase over cocaine, mazindol binding: approximate twofold higher affinity; also recorded: about two-fold more potent than cocaine

## COC(=O)[C@H]1[C@@H](c2ccc(F)cc2)C[C@@H]2CC[C@H]1N2C [Compound 1b, 3β-(p-fluorophenyl)tropane-2β-carboxylic acid methyl ether]
Nonhuman primates
  potency in behavioral studies: most potent compounds in binding and behavioral studies
Dopamine transporter [1]
  binding to / inhibition of the dopamine transporter: most potent compounds in binding and behavioral studies

## CN1[C@H]2CC[C@@H]1[C@@H](/C=C/Cl)[C@@H](c1ccc(Cl)cc1)C2 [Compound 2d, 3β-(4-Chlorophenyl)-2β-[(E)-2-chlorovinyl]tropane]
[2]
  IC50: 1.26 ± 0.3 nM
Dopamine transporter [3]
  IC50: 0.72 ± 0.06 nM
Dopamine transporter [3]; relative to 2c, binding affinity
  potency of 2d relative to 2c: doubling the potency

## C=C[C@H]1[C@@H](OC(=O)c2ccccc2)C[C@@H]2CC[C@H]1N2C [Compound 2a, 3β-(Benzoyloxy)-2β-vinyltropane]
[2]; [7]
  IC50: 1120 ± 390 nM
[2]; relative to (-)-cocaine
  fold less potent than cocaine, dopamine uptake: two-fold less potent
Dopamine transporter [3]; Table I data, in words
  activity relative to parent structure (cocaine): not substantially less active than the parent structure

## COC(=O)[C@H]1[C@@H](c2ccc(Cl)cc2)C[C@@H]2CC[C@H]1N2C [Compound 1d, 3β-(p-chlorophenyl)tropane-2β-carboxylic acid methyl ester, reference compound]
Dopamine transporter [4]
  potency relative to (-)-cocaine, inhibition of [^3 H]-1b binding: 85 times
[2]
  IC50: 3.2 ± 0.1 nM
Dopamine transporter [3]
  IC50: 1.7 ± 0.1 nM

## CCOP(=O)(/C=C/[C@H]1[C@@H](OC(=O)c2ccccc2)C[C@@H]2CC[C@H]1N2C)OCC [Compound 2f, 3β-Benzoyloxy-2β-[(E)-2-(diethoxyphosphono)vinyl]tropane]
[2]
  IC50: 5500 ± 70 nM
[2]; in words
  inhibition of dopamine uptake: found to inhibit dopamine uptake
[2]; relative to (-)-cocaine
  fold less potent than cocaine, dopamine uptake: about 10 fold
Dopamine transporter [3]
  IC50: 4850 ± 470 nM

## COC(=O)[C@H]1[C@@H](OC(=O)c2ccccc2)C[C@@H]2CC[C@H]1N2C [(-)-cocaine, methyl 3-(benzoyloxy) -8-methyl-8-azabicyclo [3.2.1]octane-2 carboxylate, reference compound]
[5]; cocaine 10 mg/kg
  duration of complete cocaine-like response: approximately 60 min
  injection period eliciting complete cocaine-like response: 5 min
[5]; cocaine, 120 min injection period, in words
  response type at 120 min: elicited primarily saline-appropriate responding
[5]; dose-response test, 0.625 mg/kg, 15 min
  n/N (animals completing 20 responses / tested): 7/7
[5]; [8]
  % Drug responses: 6 ± 2%
  Rate (responses/min): 27.3 ± 5 responses/min
[5]; dose-response test, 1.25 mg/kg, 15 min
  n/N (animals completing 20 responses / tested): 7/7
[5]; [9]
  % Drug responses: 44 ± 18%
  Rate (responses/min): 21.3 ± 5 responses/min
[5]; dose-response test, 2.5 mg/kg, 15 min
  n/N (animals completing 20 responses / tested): 7/7
[5]; [10]
  % Drug responses: 61 ± 16%
  Rate (responses/min): 31.6 ± 16 responses/min
[5]; dose-response test, 5.0 mg/kg, 15 min
  n/N (animals completing 20 responses / tested): 7/7
[5]; [11]
  % Drug responses: 98 ± 2%
  Rate (responses/min): 89.0 ± 16 responses/min
[5]; dose-response test, 10.0 mg/kg, 15 min
  n/N (animals completing 20 responses / tested): 7/7
[5]; [12]
  % Drug responses: 99 ± 1%
  Rate (responses/min): 75.8 ± 13 responses/min
[5]; in words, across test doses
  response rates: fairly stable across all test doses
[5]; in words, dose-dependence over the tested doses
  substitution for the cocaine cue / drug-appropriate responding: increased in a dose-dependent manner
[5]; temporal test, 10.0 mg/kg, 5 min
  n/N (animals completing 20 responses / tested): 7/7
[5]; [13]
  % Drug responses: 85 ± 13%
  Rate (responses/min): 28.2 ± 8 responses/min
[5]; temporal test, 10.0 mg/kg, 15 min
  n/N (animals completing 20 responses / tested): 7/7
[5]; [14]
  % Drug responses: 99 ± 1%
  Rate (responses/min): 75.8 ± 13 responses/min
[5]; temporal test, 10.0 mg/kg, 30 min
  n/N (animals completing 20 responses / tested): 7/7
[5]; temporal test, 10.0 mg/kg, 30 min, mean
  % Drug responses: 100%
[5]; temporal test, 10.0 mg/kg, 30 min, mean ± S.E.M.
  Rate (responses/min): 60.6 ± 11 responses/min
[5]; temporal test, 10.0 mg/kg, 60 min
  n/N (animals completing 20 responses / tested): 7/7
[5]; [15]
  % Drug responses: 81 ± 14%
  Rate (responses/min): 23.0 ± 4 responses/min
[5]; temporal test, 10.0 mg/kg, 120 min
  n/N (animals completing 20 responses / tested): 7/7
[5]; [16]
  % Drug responses: 31 ± 18%
  Rate (responses/min): 27.7 ± 7 responses/min
[6]
  ED50: 1.7 mg/kg
Dopamine transporter [1]
  binding to / inhibition of the dopamine transporter: binds to the dopamine transporter and inhibits dopamine transport

## COC(=O)[C@H]1[C@@H](c2ccccc2)C[C@@H]2CC[C@H]1N2C [Compound 1a, 3β-phenyltropane-2β-carboxylic acid methyl ester]
Nonhuman primates
  potency in behavioral studies: most potent compounds in binding and behavioral studies
Dopamine transporter [1]
  binding to / inhibition of the dopamine transporter: most potent compounds in binding and behavioral studies

## CN1Cc2c(N)cccc2C(c2ccccc2)C1 (stereo not drawn) [nomifensine]
Nonhuman primates
  potency in maintaining self-administration: potent in maintaining self-administration

## CCOC(=O)/C=C/[C@H]1[C@@H](OC(=O)c2ccccc2)C[C@@H]2CC[C@H]1N2C [Compound 2e, 3β-(Benzoyloxy)-2β-[(E)-2-(ethoxycarbonyl)vinyl]tropane]
[2]; [7]
  IC50: 310 ± 10 nM
[2]; relative to (-)-cocaine
  potency increase over cocaine, dopamine uptake: 4-5 times
Dopamine transporter [3]
  IC50: 50 ± 10 nM
  potency / affinity increase over cocaine, mazindol binding: 4-5 fold

## COC(=O)[C@H]1[C@@H](c2ccc(I)cc2)C[C@@H]2CC[C@H]1N2C [Compound 1c]
Dopamine transporter [4]
  potency relative to (-)-cocaine, inhibition of [^3 H]-1b binding: 78 times
